One assay concerns MCF-7 cells. The experiment in a line: E2 stimulated proliferation of MCF-7 cells (cell counts). Format: cell-based, human. An excerpt: Briefly, cells were inoculated into 12-well dishes at 1×10^4 cells per well on day 0 in 5% charcoal-stripped serum (CSS). […] Triplicate wells were counted on days 1-4 to determine the effect of 103(f) on cell growth.
The next assay deals with T1, ER-α (Homo sapiens, UniProt P03372).
T1 construct: endogenous in cells; host or cells: MCF-7
T1 sequence (P03372 1-595): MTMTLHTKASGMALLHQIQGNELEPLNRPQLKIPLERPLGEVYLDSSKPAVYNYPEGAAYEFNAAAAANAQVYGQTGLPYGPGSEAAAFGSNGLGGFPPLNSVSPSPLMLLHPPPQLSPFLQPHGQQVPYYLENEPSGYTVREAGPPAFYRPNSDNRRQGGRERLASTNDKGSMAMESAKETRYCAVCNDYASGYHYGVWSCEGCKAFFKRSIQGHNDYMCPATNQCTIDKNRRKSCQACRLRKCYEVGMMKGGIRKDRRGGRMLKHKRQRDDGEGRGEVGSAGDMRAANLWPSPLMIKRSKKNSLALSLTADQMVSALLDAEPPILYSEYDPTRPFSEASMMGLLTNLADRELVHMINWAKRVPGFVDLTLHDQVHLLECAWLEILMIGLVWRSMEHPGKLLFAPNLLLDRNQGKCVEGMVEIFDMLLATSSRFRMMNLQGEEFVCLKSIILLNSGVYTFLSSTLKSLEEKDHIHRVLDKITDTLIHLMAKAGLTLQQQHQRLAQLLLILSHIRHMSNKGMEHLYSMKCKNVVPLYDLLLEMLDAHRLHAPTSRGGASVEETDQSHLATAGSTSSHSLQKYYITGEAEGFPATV
The experiment in a line: ERE-TK-Luc reporter assay of E2-stimulated ER-α transcriptional activity in MCF-7 cells. As to conditions: for IC80: MCF7, read-out: IC80 (concentration required for inhibition of ER-α activity by 80%); for IC50: read-out: IC50 (concentration required for inhibition of ER-α activity by 50%). Type of assay: cell-based. The procedure:
Briefly, MCF7 or T47D cells are transfected overnight with an ERE-TK-Luc reporter construct. An ERE-TK-Luc construct contains an estrogen response element (ERE) upstream of a minimal thymidine kinase (TK) promoter that drives the expression of the luciferase (Luc) reporter gene. After transfection, the cells are subsequently washed and allowed to recover for several hours. […] The cells are subsequently harvested for luciferase reporter assays.
Three compounds were tested for their ability to inhibit ER-α activity. […] Initially, each compound was tested at doses of 1 μM and 50 μM.

The next assay has as its system MCF-7. The note with it: MCF-7, ER-α +; cited from earlier work.
For the next assay, the system named is LCC1. As to conditions: LCC1, ER-α +; cited from earlier work.
For another assay, the system named is LCC2. The note with it: LCC2, ER-α +; cited from earlier work.
A further assay deals with LCC9. As to conditions: LCC9, ER-α +; cited from earlier work.

In the case of `CC(C)=CC1C(COC(=O)c2cc3c(cc2Cl)OCO3)C1(C)C` (stereo not drawn) [Compound 103(f)], the “effect on E2-stimulated cell growth” value with MCF-7 cells (5 μM or 20 μM in the presence of 10 nM E2, P<0.01) is reported as “blocked most of the E2-stimulated cell growth”. Further, the “effect on cell growth, compound alone” value in the assay on MCF-7 cells (5 μM or 20 μM, without E2, compared with DMSO, days 1-4) is listed as “little or no effect on cell growth”. Besides, on ER-α, the IC80 turned out to be 5 µM and the IC50 was 3 µM.
Take `O=C(O)CCCc1ccc2ccccc2c1` [Compound 201]: on ER-α, the IC80 is 50 µM and the IC50 came out at 4 µM.
As to `Nc1nc(Cc2ccccc2)nc(Cc2ccccc2)c1-c1ccccc1` [Compound 301], at ER-α, the IC80 was 40 µM and the IC50 amounted to 12 µM.
`C[C@]12CC[C@@H]3c4ccc(O)cc4CC[C@H]3[C@@H]1CC[C@@H]2O` [Compound E2, 17β-estradiol]: the “cell density by day 4” value in the assay with MCF-7 cells (DMSO+E2 (10 nM), seeded 1×10^4 cells per well, 2% CSS) was 9×10^4 cells per well. In addition, the “Response to Estradiol (E2)” value in the assay on MCF-7 is listed as “E2-responsive; E2-dependent growth”; in the assay with LCC1, “Partially E2-depenedent growth”; in the assay on LCC2, “E2-dependent growth”; in the assay with LCC9, “E2-insensitive growth; some E2-responsive”.
Consider `C[C@]12CC[C@@H]3c4ccc(O)cc4C[C@@H](CCCCCCCCC[S+]([O-])CCCC(F)(F)C(F)(F)F)[C@H]3[C@@H]1CC[C@@H]2O` (stereo partly drawn) [Fulvestrant], for which the “Response to Fulvestrant” value is “Sensitive” in the assay on MCF-7, “Sensitive” in the assay with LCC1, “Sensitive” in the assay with LCC2 and “Resistant” in the assay on LCC9.
`CC/C(=C(\c1ccccc1)c1ccc(OCCN(C)C)cc1)c1ccccc1` [Tamoxifen]: the “Response to Tamoxifen” value with MCF-7 is recorded as “Sensitive”; in the assay with LCC1, “Sensitive”; in the assay on LCC2, “Resistant”; in the assay on LCC9, “Resistant”.

(Values after patent US10160716B2, “Compounds and methods of use thereof for treating tumors” (Georgetown University, priority 2012, dated 2018).)
